Some results are limits rather than exact numbers.

One assay deals with T1, GSK-3β (AA 1-420) (Homo sapiens, UniProt P49841).
T1 construct: GSK-3β (AA 1-420)
Nature of the assay: Ki determination for the inhibition of GSK-3 (coupled enzyme system). Type of assay: biochemical. To be noted: 20 μM ATP, 300 μM peptide, 20 nM GSK-3β, 30° C. Summed up: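 Pyruvate kinase/lactate dehydrogenase-coupled NADH assay with 20 nM GSK-3β (AA 1-420), 20 μM ATP, 300 μM phosphopeptide HSSPHQS(PO3H2)EDEEE in HEPES pH 7.5, 1.5% DMSO, 30 °C. Compound (12 points, 0.002–30 μM) preincubated 10 min before ATP start; Ki derived from 10-min rates versus inhibitor concentration.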

In the next assay the target is T2, Aurora-2 (Homo sapiens, UniProt O14965).
T2 sequence (O14965 1-403): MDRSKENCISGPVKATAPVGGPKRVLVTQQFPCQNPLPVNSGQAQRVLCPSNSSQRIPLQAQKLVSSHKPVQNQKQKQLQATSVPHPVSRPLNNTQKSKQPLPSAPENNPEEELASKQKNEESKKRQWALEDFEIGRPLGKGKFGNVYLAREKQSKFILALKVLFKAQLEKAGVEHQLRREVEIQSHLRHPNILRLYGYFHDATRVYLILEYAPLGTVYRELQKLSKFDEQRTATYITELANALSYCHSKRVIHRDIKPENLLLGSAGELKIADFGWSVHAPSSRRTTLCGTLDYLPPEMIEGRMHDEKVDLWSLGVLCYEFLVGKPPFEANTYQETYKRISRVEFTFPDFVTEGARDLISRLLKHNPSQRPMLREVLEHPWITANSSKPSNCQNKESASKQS
The assay is described as follows: Ki determination for the inhibition of Aurora-2 (coupled enzyme assay). Type of assay: biochemical. To be noted: 70 nM Aurora-2, peptide LRRASLG, 30° C. As for the experimental part: Compounds were screened in the following manner for their ability to inhibit Aurora-2 using a standard coupled enzyme assay (Fox et al (1998) Protein Sci 7, 2249).
To an assay stock buffer solution containing 0.1M HEPES 7.5, 10 mM MgCl2, 1 mM DTT, 25 mM NaCl, 2.5 mM phosphoenolpyruvate, […], 30 mg/ml pyruvate kinase, 10 mg/ml lactate dehydrogenase, […], and 800 μM peptide (LRRASLG, American Peptide, Sunnyvale, Calif.) was added a DMSO solution of a compound of the present invention to a final concentration of 30 μM. The resulting mixture was incubated at 30° C. for 10 min. The reaction was initiated by the addition of 10 μL of Aurora-2 stock solution to give a final concentration of 70 nM in the assay. The rates of reaction were obtained by monitoring absorbance at 340 nm over a 5 minute read time at 30° C. using a BioRad Ultramark plate reader (Hercules, Calif.). The Ki values were determined from the rate data as a function of inhibitor concentration.

T1 sequence (P49841 whole entry, the tested form may be a part): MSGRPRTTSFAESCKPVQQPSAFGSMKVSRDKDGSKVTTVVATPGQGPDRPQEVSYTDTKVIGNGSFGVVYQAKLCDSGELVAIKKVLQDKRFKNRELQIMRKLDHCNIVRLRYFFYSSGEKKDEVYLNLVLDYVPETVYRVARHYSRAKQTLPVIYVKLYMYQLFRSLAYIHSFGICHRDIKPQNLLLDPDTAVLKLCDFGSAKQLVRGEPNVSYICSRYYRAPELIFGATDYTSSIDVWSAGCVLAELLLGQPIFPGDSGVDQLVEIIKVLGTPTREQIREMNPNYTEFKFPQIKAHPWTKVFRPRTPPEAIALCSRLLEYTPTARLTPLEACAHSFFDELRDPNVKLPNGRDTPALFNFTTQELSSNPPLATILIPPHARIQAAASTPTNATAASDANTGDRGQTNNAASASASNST

With `Cc1ccc2[nH]nc(Nc3nc(-c4ccccc4C(F)(F)F)nc4ccccc34)c2c1` [II-61, (5-Methyl-1H-indazol-3-yl)-[2-(2-trifluoromethyl-phenyl)-quinazolin-4-yl]-amine], the Ki at GSK-3β (AA 1-420) is less than 0.1 µM; on Aurora-2, 1 to 20 µM.

In the case of `Clc1ccccc1-c1nc(Nc2n[nH]c3ccccc23)c2ccccc2n1` [II-63, [2-(2-Chloro-phenyl)-quinazolin-4-yl]-(1H-indazol-3-yl)-amine], the Ki on GSK-3β (AA 1-420) is less than 0.1 µM; on Aurora-2 it was 1 to 20 µM.

For `FC(F)(F)c1ccc2[nH]nc(Nc3nc(-c4ccccc4C(F)(F)F)nc4ccccc34)c2c1` [II-64, (5-Trifluoromethyl-1H-indazol-3-yl)-[2-(2-trifluoromethyl-phenyl)-quinazolin-4-yl]-amine], the Ki on GSK-3β (AA 1-420) was less than 0.1 µM; on Aurora-2 it was 0.1 to 1 µM.

For `Cc1ccccc1-c1nc(Nc2n[nH]c3ccccc23)c2ccccc2n1` [II-67, (1H-indazol-3-yl)-[2-(2-methyl-phenyl)-quinazolin-4-yl]-amine], the values for the inhibition constant Ki at GSK-3β (AA 1-420) and on Aurora-2 were less than 0.1 µM and 1 to 20 µM, respectively.

With `FC(F)(F)c1ccc2c(Nc3nc(-c4ccccc4C(F)(F)F)nc4ccccc34)n[nH]c2c1` [II-69, (6-Trifluoromethyl-1H-indazol-3-yl)-[2-(2-trifluoromethyl-phenyl)-quinazolin-4-yl]-amine], the figures for the Ki on GSK-3β (AA 1-420) and on Aurora-2 were less than 0.1 µM and 1 to 20 µM, respectively.

As for `O=[N+]([O-])c1ccc2[nH]nc(Nc3nc(-c4ccccc4C(F)(F)F)nc4ccccc34)c2c1` [II-70, (5-Nitro-1H-indazol-3-yl)-[2-(2-trifluoromethyl-phenyl)-quinazolin-4-yl]-amine], the results for the Ki on GSK-3β (AA 1-420) and at Aurora-2 were less than 0.1 µM and 0.1 to 1 µM, respectively.

For the molecule `Fc1ccc2[nH]nc(Nc3nc(-c4ccccc4Cl)nc4ccccc34)c2c1` [II-75, [2-(2-Chloro-phenyl)-quinazolin-4-yl]-(5-fluoro-1H-indazol-3-yl)-amine], the Ki at GSK-3β (AA 1-420) was less than 0.1 µM; at Aurora-2, 1 to 20 µM.

For the molecule `Fc1cc(F)c2[nH]nc(Nc3nc(-c4ccccc4Cl)nc4ccccc34)c2c1` [II-76, [2-(2-Chloro-phenyl)-quinazolin-4-yl]-(5,7-difluoro-1H-indazol-3-yl)-amine], the Ki was less than 0.1 µM on GSK-3β (AA 1-420) and 1 to 20 µM on Aurora-2.

For the molecule `FC(F)(F)c1ccc2[nH]nc(Nc3nc(-c4ccccc4Cl)nc4ccccc34)c2c1` [II-77, [2-(2-Chloro-phenyl)-quinazolin-4-yl]-(5-trifluoromethyl-1H-indazol-3-yl)-amine], the Ki is less than 0.1 µM at GSK-3β (AA 1-420) and 0.1 to 1 µM on Aurora-2.

Regarding `N#Cc1ccccc1-c1nc(Nc2n[nH]c3ccccc23)c2ccccc2n1` [II-78, [2-(2-cyano-phenyl)-quinazolin-4-yl]-(1H-indazol-3-yl)-amine], the inhibition constant Ki on GSK-3β (AA 1-420) was less than 0.1 µM; on Aurora-2 it was 1 to 20 µM.

For the molecule `FC(F)(F)c1ccccc1-c1nc(Nc2n[nH]c3ccc(Br)cc23)c2ccccc2n1` [II-79, (5-Bromo-1H-indazol-3-yl)-[2-(2-trifluoromethyl-phenyl)-quinazolin-4-yl]-amine], the Ki at GSK-3β (AA 1-420) is less than 0.1 µM; at Aurora-2 it was 0.1 to 1 µM.

As for `FC(F)(F)c1ccccc1-c1nc(Nc2n[nH]c3cc(Cl)ccc23)c2ccccc2n1` [II-80, (6-Chloro-1H-indazol-3-yl)-[2-(2-trifluoromethyl-phenyl)-quinazolin-4-yl]-amine], the inhibitory constant (Ki) on GSK-3β (AA 1-420) is less than 0.1 µM; on Aurora-2 it was 1 to 20 µM.

With `FC(F)(F)c1ccccc1-c1nc(Nc2n[nH]c3cc(Br)ccc23)c2ccccc2n1` [II-82, (6-Bromo-1H-indazol-3-yl)-[2-(2-trifluoromethyl-phenyl)-quinazolin-4-yl]-amine], the inhibition constant (Ki) on GSK-3β (AA 1-420) is less than 0.1 µM; on Aurora-2 it was 1 to 20 µM.

Consider `COc1cccc2c(Nc3n[nH]c4ccccc34)nc(-c3ccccc3C(F)(F)F)nc12` [II-90, (1H-Indazol-3-yl)-[8-methoxy-2-(2-trifluoromethyl-phenyl)-quinazolin-4-yl]-amine], for which the Ki on GSK-3β (AA 1-420) was less than 0.1 µM; at Aurora-2, 1 to 20 µM.

On to `COc1cccc2c(Nc3n[nH]c4ccc(F)cc34)nc(-c3ccccc3C(F)(F)F)nc12` [II-91, (5-Fluoro-1H-indazol-3-yl)-[8-methoxy-2-(2-trifluoromethyl-phenyl)-quinazolin-4-yl]-amine], for which the Ki is less than 0.1 µM on GSK-3β (AA 1-420) and 1 to 20 µM on Aurora-2.

On to `COc1cccc2c(Nc3n[nH]c4c(F)cc(F)cc34)nc(-c3ccccc3C(F)(F)F)nc12` [II-93, (5,7-Difluoro-1H-indazol-3-yl)-[8-methoxy-2-(2-trifluoromethyl-phenyl)-quinazolin-4-yl]-amine], for which the Ki on GSK-3β (AA 1-420) was less than 0.1 µM; on Aurora-2, 0.1 to 1 µM.

Consider `Fc1cc(F)c2[nH]nc(Nc3nc(-c4cccnc4Cl)nc4ccccc34)c2c1` [II-94, [2-(2-Chloro-pyridin-3-yl)-quinazolin-4-yl]-(5,7-Difluoro-1H-indazol-3-yl)-amine], for which the inhibition constant (Ki) is less than 0.1 µM on GSK-3β (AA 1-420) and 0.1 to 1 µM at Aurora-2.

In the case of `Nc1ccc(-c2nc(Nc3n[nH]c4c(F)cc(F)cc34)c3ccccc3n2)c(Cl)c1` [II-96, [2-(4-Amino-2-chloro-phenyl)-quinazolin-4-yl]-(5,7-Difluoro-1H-indazol-3-yl)-amine], the Ki was less than 0.1 µM at GSK-3β (AA 1-420) and 1 to 20 µM at Aurora-2.

As to `FC(F)(F)c1ccccc1-c1nc(Nc2n[nH]c3ncccc23)c2ccccc2n1` [II-99, (1H-Pyrazolo[3,4-b]pyridin-3-yl)-[2-(2-trifluoromethyl-phenyl)-quinazolin-4-yl]-amine], the inhibitory constant (Ki) at GSK-3β (AA 1-420) is less than 0.1 µM; on Aurora-2, 0.1 to 1 µM.

In the case of `Cc1cc(Nc2cc(-c3ccccc3)n[nH]2)nc(-c2ccccc2OC(F)(F)F)n1` [II-103, [6-Methyl-2-(2-trifluoromethoxy-phenyl)-pyrimidin-4-yl]-(5-phenyl-2H-pyrazol-3-yl)-amine], the figures for the Ki at GSK-3β (AA 1-420) and at Aurora-2 were 0.1 to 1 µM and 1 to 20 µM, respectively.

In the case of `Cc1cc(Nc2cc(-c3ccco3)n[nH]2)nc(-c2ccccc2OC(F)(F)F)n1` [II-104, (5-Furan-2-yl-2H-pyrazol-3-yl)-[6-methyl-2-(2-trifluoromethoxy-phenyl)-pyrimidin-4-yl]-amine], the results for the inhibitory constant (Ki) at GSK-3β (AA 1-420) and on Aurora-2 were 0.1 to 1 µM and 1 to 20 µM, respectively.

Consider `CCc1cc(Nc2cc(C)n[nH]2)nc(-c2ccccc2OC(F)(F)F)n1` [II-105, [6-Ethyl-2-(2-trifluoromethoxy-phenyl)-pyrimidin-4-yl]-(5-methyl-2H-pyrazol-3-yl)-amine], for which the Ki on GSK-3β (AA 1-420) is less than 0.1 µM; at Aurora-2, 0.1 to 1 µM.

In the case of `Fc1ccc2[nH]nc(Nc3nc(-c4ccccc4C(F)(F)F)nc4c3CCC4)c2c1` [II-107, (5-Fluoro-1H-indazol-3-yl)-[2-(2-trifluoromethyl-phenyl)-6,7-dihydro-5H-cyclopentapyrimidin-4-yl]-amine], the inhibition constant Ki on GSK-3β (AA 1-420) was less than 0.1 µM; on Aurora-2, 1 to 20 µM.

As for `c1ccc(-c2nc(Nc3n[nH]c4ccccc34)c3ccccc3n2)cc1` [III-1, (1H-Indazol-3-yl)-(2-phenyl-quinazolin-4-yl)-amine], the Ki on GSK-3β (AA 1-420) and at Aurora-2 was 0.1 to 1 µM each time.

Turning to `Cc1cc(Nc2nc(-c3ccccc3)nc3c2CCCC3)n[nH]1` [III-7, (5-Methyl-2H-pyrazol-3-yl)-(2-phenyl-5,6,7,8-tetrahydroquinazolin-4-yl)-amine], the inhibitory constant (Ki) at GSK-3β (AA 1-420) and at Aurora-2 was less than 0.1 µM throughout.

`Cc1cc(Nc2nc(-c3ccncc3)nc3ccccc23)n[nH]1` [III-9, (5-Methyl-2H-pyrazol-3-yl)-(2-pyridin-4-yl-quinazolin-4-yl)-amine]: the Ki on GSK-3β (AA 1-420) and on Aurora-2 was less than 0.1 µM each time.

Values taken from patent US6610677B2, “Pyrazole compounds useful as protein kinase inhibitors” (Vertex Pharmaceuticals Incorporated, priority 2000, dated 2003).
